Experiments:
[1] = molecular target: T1, PhKγ2(h) (Homo sapiens, UniProt P15735); experiment: Eurofins kinase panel; format: biochemical; conditions: read-out: Inhibition rate (%)
T1 construct: purchased Eurofins (KinaseProfiler)
T1 sequence (P15735 1-406): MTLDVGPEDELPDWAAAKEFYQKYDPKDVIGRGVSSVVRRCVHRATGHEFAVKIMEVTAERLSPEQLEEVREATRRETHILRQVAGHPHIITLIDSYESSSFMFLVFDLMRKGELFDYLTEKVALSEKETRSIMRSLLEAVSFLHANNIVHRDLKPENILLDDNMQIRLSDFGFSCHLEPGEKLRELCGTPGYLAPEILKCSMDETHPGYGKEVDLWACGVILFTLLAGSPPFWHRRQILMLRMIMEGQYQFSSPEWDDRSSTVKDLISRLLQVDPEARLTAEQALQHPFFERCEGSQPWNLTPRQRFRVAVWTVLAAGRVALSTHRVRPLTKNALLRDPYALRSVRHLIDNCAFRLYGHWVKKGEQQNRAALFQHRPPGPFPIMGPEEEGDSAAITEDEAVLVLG

[2] = molecular target: T2, CDK2/cyclinE(h) (Homo sapiens, UniProt P24941); experiment: Eurofins kinase panel; format: biochemical; conditions: read-out: Inhibition rate (%)
T2 construct: purchased Eurofins (KinaseProfiler)

[3] = molecular target: T3, PKCι(h) (Homo sapiens, UniProt P41743); experiment: Eurofins kinase panel; format: biochemical; conditions: read-out: Inhibition rate (%)
T3 construct: purchased Eurofins (KinaseProfiler)
T3 sequence (P41743 1-596): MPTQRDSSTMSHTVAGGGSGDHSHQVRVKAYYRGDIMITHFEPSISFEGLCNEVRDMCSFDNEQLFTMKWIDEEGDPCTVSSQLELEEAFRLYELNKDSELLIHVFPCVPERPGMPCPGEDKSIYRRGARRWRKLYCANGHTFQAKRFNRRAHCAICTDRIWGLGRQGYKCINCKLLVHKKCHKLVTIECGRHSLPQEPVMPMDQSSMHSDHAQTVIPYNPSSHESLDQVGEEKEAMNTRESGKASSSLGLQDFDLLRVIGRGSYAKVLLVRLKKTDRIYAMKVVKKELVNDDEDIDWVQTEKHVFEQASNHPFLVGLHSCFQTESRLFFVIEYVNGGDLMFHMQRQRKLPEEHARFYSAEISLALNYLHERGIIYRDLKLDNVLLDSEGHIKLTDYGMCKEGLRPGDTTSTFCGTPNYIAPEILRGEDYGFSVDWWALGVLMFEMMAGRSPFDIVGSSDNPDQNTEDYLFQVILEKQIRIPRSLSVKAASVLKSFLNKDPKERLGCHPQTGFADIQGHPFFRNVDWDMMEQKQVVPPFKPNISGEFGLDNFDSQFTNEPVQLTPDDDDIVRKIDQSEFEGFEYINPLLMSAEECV

[4] = tested on: A375; experiment: Cell proliferation assay; format: cell-based; conditions: Homo sapiens, A-375; Fig. 2G
Description: (§1) The cancer cell lines indicated in Figure 3 were seeded in 96-well plates at a low density in growth medium. The next day, appropriate controls or the designated concentrations of the compounds were added to each well, and the cells were incubated for 72 h. HUVECs (passage 3) were seeded in 96-well plates in growth medium overnight and transferred to serum-free medium for 24 h. The following day, appropriate controls or the designated concentrations of the compounds were added to each well, and 100 ng/mL growth factor (bFGF or VEGF) was added to the indicated wells. The cells were incubated for 48 h. Finally, cell proliferation was determined using a sulforhodamine B (SRB) assay or a cell counting kit-8 (CCK-8) assay. […] IC50 values for proliferation curves were calculated using a 4-parameter logistic nonlinear regression model with SoftMax Pro Software (Molecular Devices, San Jose, USA).

[5] = tested on: SGC-7901; experiment: Cell proliferation assay; format: cell-based; conditions: Homo sapiens, Fig. 2G
Description: as §1

[6] = tested on: NCI-H520; experiment: Cell proliferation assay; format: cell-based; conditions: Homo sapiens, Fig. 2G
Description: as §1

[7] = tested on: HCC78; experiment: Cell proliferation assay; format: cell-based; conditions: Homo sapiens, Fig. 2G
Description: as §1

[8] = tested on: NCI-H1975; experiment: Cell proliferation assay; format: cell-based; conditions: Homo sapiens, Fig. 2G
Description: as §1

[9] = tested on: MKN45; experiment: Cell proliferation assay; format: cell-based; conditions: Homo sapiens, MKN-45; Fig. 2G
Description: as §1

[10] = tested on: SK-BR-3; experiment: Cell proliferation assay; format: cell-based; conditions: Homo sapiens, Fig. 2G
Description: as §1

[11] = tested on: NCI-H1299; experiment: Cell proliferation assay; format: cell-based; conditions: Homo sapiens, Fig. 2G
Description: as §1

[12] = tested on: HCC366; experiment: Cell proliferation assay; format: cell-based; conditions: Homo sapiens, Fig. 2G
Description: as §1

[13] = tested on: EBC-1; experiment: Cell proliferation assay; format: cell-based; conditions: Homo sapiens, Fig. 2G
Description: as §1

[14] = tested on: HCC1954; experiment: Cell proliferation assay; format: cell-based; conditions: Homo sapiens, Fig. 2G
Description: as §1

[15] = tested on: BGC-823; experiment: Cell proliferation assay; format: cell-based; conditions: Homo sapiens, Fig. 2G
Description: as §1

[16] = tested on: CAL51; experiment: Cell proliferation assay; format: cell-based; conditions: Homo sapiens, CAL-51; Fig. 2G
Description: as §1

[17] = tested on: MKN1; experiment: Cell proliferation assay; format: cell-based; conditions: Homo sapiens, MKN-1; Fig. 2G
Description: as §1

[18] = molecular target: T4, GSK3α(h) (Homo sapiens, UniProt P49840); experiment: Eurofins kinase panel; format: biochemical; conditions: read-out: Inhibition rate (%)
T4 construct: purchased Eurofins (KinaseProfiler)
T4 sequence (P49840 whole entry): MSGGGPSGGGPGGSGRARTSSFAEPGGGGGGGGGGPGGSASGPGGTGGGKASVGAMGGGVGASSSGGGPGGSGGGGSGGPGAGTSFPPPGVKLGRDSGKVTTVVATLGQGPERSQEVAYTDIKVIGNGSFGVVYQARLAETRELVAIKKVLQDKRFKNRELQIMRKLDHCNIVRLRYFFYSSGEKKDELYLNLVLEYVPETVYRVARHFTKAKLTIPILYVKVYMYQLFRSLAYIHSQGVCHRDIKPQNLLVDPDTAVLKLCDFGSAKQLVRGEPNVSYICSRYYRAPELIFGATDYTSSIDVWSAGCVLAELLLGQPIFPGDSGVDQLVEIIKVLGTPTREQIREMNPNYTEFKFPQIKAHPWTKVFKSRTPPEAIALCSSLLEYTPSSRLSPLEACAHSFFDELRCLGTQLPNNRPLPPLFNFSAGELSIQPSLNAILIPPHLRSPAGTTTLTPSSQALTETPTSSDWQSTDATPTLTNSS

[19] = tested on: MC38 colorectal adenocarcinoma model; experiment: In vivo antitumor activity, MC38 model; set-up: species or system C57BL/6 mice; conditions: oral once daily 23 days
Description: For the MC38 xenograft model, 6-week-old C57BL/6 mice were housed and maintained under specific pathogen-free conditions. Tumor cells (2 × 10^6 in 200 μL) were injected subcutaneously (s.c.) into the right flanks of C57BL/6 mice. […] The tumors were measured twice per week using a microcaliper. Tumor volume (TV) was calculated as follows: TV = (length × width^2)/2. In addition, the individual relative tumor volume (RTV) was calculated as follows: RTV = Vt / V0, where Vt is the volume on a particular day and V0 is the volume at the beginning of the treatment. The RTV is shown on the indicated days as the […] ± SEM for the indicated groups of mice.

[20] = molecular target: T5, cKit(V654A)(h) (Homo sapiens, UniProt P10721, V654A); experiment: Eurofins kinase panel; format: biochemical; conditions: read-out: Inhibition rate (%)
T5 construct: purchased Eurofins (KinaseProfiler)
T5 sequence (P10721 26-976 V654A): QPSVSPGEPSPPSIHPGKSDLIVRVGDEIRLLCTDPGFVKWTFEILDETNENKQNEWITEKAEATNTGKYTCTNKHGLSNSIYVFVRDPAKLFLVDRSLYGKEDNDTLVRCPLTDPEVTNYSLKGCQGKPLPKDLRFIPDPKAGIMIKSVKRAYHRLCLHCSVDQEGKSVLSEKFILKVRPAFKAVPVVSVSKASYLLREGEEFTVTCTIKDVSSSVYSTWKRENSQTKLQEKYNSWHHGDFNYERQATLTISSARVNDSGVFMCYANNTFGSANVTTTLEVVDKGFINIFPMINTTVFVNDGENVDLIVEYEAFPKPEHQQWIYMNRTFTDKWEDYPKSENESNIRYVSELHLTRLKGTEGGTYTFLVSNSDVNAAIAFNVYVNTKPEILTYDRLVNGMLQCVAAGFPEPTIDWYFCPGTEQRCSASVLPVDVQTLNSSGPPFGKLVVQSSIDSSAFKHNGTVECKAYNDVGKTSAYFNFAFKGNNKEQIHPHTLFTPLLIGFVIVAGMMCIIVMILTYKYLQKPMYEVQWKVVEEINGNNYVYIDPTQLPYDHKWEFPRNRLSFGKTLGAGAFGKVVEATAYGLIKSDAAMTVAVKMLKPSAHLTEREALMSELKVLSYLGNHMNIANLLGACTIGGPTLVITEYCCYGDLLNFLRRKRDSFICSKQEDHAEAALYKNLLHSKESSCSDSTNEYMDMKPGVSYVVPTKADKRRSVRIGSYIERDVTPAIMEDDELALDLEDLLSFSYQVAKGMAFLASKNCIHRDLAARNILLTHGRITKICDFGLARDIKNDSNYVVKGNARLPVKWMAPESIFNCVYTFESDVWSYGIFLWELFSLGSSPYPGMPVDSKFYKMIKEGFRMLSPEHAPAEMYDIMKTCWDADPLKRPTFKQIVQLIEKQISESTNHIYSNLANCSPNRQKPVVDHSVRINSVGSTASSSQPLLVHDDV

[21] = molecular target: T6, FGFR3 (Homo sapiens, UniProt P22607); experiment: Kinase inhibition assay (ELISA); format: biochemical; conditions: mean ± SD
T6 construct: purchased Eurofins (Fremont, United States)
T6 sequence (P22607 23-806): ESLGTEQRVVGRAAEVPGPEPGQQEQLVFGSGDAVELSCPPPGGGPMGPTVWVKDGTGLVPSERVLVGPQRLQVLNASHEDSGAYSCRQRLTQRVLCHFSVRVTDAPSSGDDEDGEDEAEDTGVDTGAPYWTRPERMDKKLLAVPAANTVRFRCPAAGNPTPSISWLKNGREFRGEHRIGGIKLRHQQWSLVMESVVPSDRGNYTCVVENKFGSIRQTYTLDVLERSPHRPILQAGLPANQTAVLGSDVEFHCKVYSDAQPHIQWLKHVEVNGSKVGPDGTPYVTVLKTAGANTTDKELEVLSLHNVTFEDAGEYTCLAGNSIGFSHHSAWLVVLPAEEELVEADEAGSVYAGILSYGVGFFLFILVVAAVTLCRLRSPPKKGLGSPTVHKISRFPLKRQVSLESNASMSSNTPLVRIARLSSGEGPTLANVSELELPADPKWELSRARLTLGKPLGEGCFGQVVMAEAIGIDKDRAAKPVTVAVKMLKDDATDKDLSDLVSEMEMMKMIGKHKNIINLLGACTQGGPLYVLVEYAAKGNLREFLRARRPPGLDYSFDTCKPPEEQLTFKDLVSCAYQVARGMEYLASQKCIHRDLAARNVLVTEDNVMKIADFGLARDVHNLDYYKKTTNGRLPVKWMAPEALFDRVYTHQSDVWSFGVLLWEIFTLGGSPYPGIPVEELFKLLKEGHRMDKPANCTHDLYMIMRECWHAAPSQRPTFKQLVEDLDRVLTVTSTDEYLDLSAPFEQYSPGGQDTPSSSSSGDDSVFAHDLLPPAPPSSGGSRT

`COc1cc(OC)c(Cl)c(-c2ccc3c(NC(=O)c4ccc(N5CCNC(C)(C)C5)cc4)n[nH]c3n2)c1Cl` [3D185] was tested, and the inhibition at 0.01 µM ([1]; 10 nM) was 12%, the inhibition at 0.1 µM ([1]; 100 nM) was -8% and the inhibition at 1 µM ([1]; 1000 nM) was -3%. The inhibition at 0.01 µM ([2]; 10 nM) was -5%, the inhibition at 0.1 µM ([2]; 100 nM) was 2% and the inhibition at 1 µM ([2]; 1000 nM) was 10%. The inhibition at 0.01 µM ([3]; 10 nM) was -1%, the inhibition at 0.1 µM ([3]; 100 nM) was 0% and the inhibition at 1 µM ([3]; 1000 nM) was -1%. The IC50 [4] was greater than 1000 nM, the IC50 [5] was greater than 1000 nM and the IC50 [6] was greater than 1000 nM. It also gave an IC50 [7] greater than 1000 nM, an IC50 [8] greater than 1000 nM and an IC50 [9] greater than 1000 nM. The IC50 [10] was greater than 1000 nM, the IC50 [11] was greater than 1000 nM and the IC50 [12] was greater than 1000 nM. It also gave an IC50 [13] greater than 1000 nM, an IC50 [14] greater than 1000 nM and an IC50 [15] greater than 1000 nM. For the same molecule, the IC50 [16] was greater than 1000 nM, the IC50 [17] was greater than 1000 nM and the inhibition at 0.01 µM ([18]; 10 nM) was 10%. For the same molecule, the inhibition at 0.1 µM ([18]; 100 nM) was 4%, the inhibition at 1 µM ([18]; 1000 nM) was -5% and the “effect on MC38 tumor growth” value [19] was “delayed tumor growth”. The inhibition at 0.01 µM ([20]; 10 nM) was 4%, the inhibition at 0.1 µM ([20]; 100 nM) was 14% and the inhibition at 1 µM ([20]; 1000 nM) was 37%. The IC50 [21] was 3.6 nM.

Source: paper PMC6704710, “Preclinical evaluation of 3D185, a novel potent inhibitor of FGFR1/2/3 and CSF-1R, in FGFR-dependent and macrophage-dominant cancer models” (Journal of Experimental & Clinical Cancer Research : CR, 2019)
